Measured values as given in ChEMBL document CHEMBL3507680, “University of Dundee, Gates Library screen for HepG2 cell viability”.

Test: Human HepG2 cell viability assay in 384 well format
Assay type: toxicity, cell-based
Set-up: dose 125 nL, time 70.5 hour; cytotoxicity at 70.5 h: concentration not given beside the values
Settings: HepG2 cells, read-out: Inhibition

Structure (SMILES) | cytotoxicity at 70.5 h [%]
CCNC(=O)[C@@H]1C[C@@H](NC(=O)c2ccc(C)s2)CN1Cc1ccccn1 | -2.7
CC(C)OCc1ncn2c1CN(Cc1cnn(C)c1)CCC2 | 0.691
CCC(O)CN1CCN(C(=O)c2cc(Cl)cc3cccnc23)CC1 (configuration not stated) | 18.2
O=C(NCc1ccco1)[C@H]1C[C@@H]2CCN(c3cccc(F)c3)C[C@H]2O1 | -5.03
CC(C)C(C)NC(=O)Nc1ccccc1CN1CCOCC1 (configuration not stated) | -8.46
CN(C)C(=O)C1CCC2(CCN(Cc3ccc4ccccc4n3)CC2)O1 (configuration not stated) | -8.67
CN1CCN(c2ccc(NC(=O)c3ccoc3)c(C(F)(F)F)c2)CC1 | -7.05
CCc1ncc2c(n1)CN(Cc1cn3ccsc3n1)CC2 | 9.84
CCc1oc2ccc(NS(=O)(=O)CC)cc2c1C(=O)OC | -5.49
Cc1ccc(O)c(CNC2CCCN(Cc3noc(C4CC4)n3)C2)n1 (configuration not stated) | -4.57
CCC(C)NC(=O)N1CCCn2cnc(CO)c2C1 (configuration not stated) | -7.63
Cc1noc([C@@H]2C[C@H](NS(=O)(=O)Cc3ccccc3)CN2C)n1 | -3.9
COCCN1CC2(CCCN(C(=O)NCCc3cccs3)C2)CCC1=O (configuration not stated) | 4.85
Cc1cc(NC(=O)CN2CCCC(Cn3nc(C)nc3C)C2)n(C)n1 (configuration not stated) | -2.11
O=C(NCc1ccccc1Cn1ccnc1)N1CCOCC1 | -9.82
CCOC(=O)C1CN(S(=O)(=O)C2CC2)Cc2ncn(CC)c21 (configuration not stated) | 11
Cn1nc2c(cc1=O)CN(Cc1nc(-c3ccoc3)no1)CC2 | -2.1
O=C(Nc1cccn(CC(F)(F)F)c1=O)c1ccc(F)cc1 | 19.4
C[C@H]1C[C@H]2CN(C(=O)CC3CC3)CC[C@H]2O1 | -7.47
Cc1ccc2c(n1)N(CCN(C)C)CCN(C(=O)N1CCOCC1)C2 | -3.39
COc1c(C2CCCN2Cc2cccc(C(N)=O)c2)c(C)nn1C (configuration not stated) | -2.05
CCN1CCC(N2CCN(c3cc(-c4nc(C)no4)ccn3)CC2)CC1 | 11.7
O=C(c1ccc(-n2ccnn2)cc1)N(CC1CC1)c1cccnc1 | 5.29

Structure (SMILES) | cytotoxicity at 70.5 h [%]
Cc1cc(S(C)(=O)=O)c(C)c(S(=O)(=O)N2CCCC(C)C2)c1 (configuration not stated) | -7.71
Cc1cnn(CC2CCCN2CC(=O)Nc2cc(C(C)C)no2)c1 (configuration not stated) | -7.84
Cn1cc(CN2CCOC3(CCCN(c4cccc(F)c4)C3)C2)cn1 (configuration not stated) | -7.93
COc1cccc(CSc2nnc(C)n2CC(N)=O)c1 | -98.4
c1snnc1CN1C[C@H]2CCC[C@@H](CN3CCOCC3)[C@H]2C1 | -7.77
CS(=O)(=O)NCC1CCCN(Cc2ccccc2F)C1 (configuration not stated) | -7.12
CC(C)N(CCNc1nc(C2CCCC2)nc2c1cnn2C)C(C)C | -1.41
Cc1ccc(CN2CCCn3c(nc(Cn4ccnc4)cc3=O)C2)o1 | -6.14
Cc1cc(C)c(C(=O)N2CCn3nc(C(=O)NCCN(C)C)cc3C2)[nH]1 | -3.17
CC(Cn1cccn1)NC(=O)NCc1ccc(S(C)(=O)=O)cc1 (configuration not stated) | 11.7
CCNc1ncc(C(=O)NC(c2ccccc2)c2ccco2)cn1 (configuration not stated) | -9.5
Cc1cccc(-c2noc(CN3CCCC3Cn3cccn3)n2)c1 (configuration not stated) | 8.86
O=C(COc1coc(CN2CCSCC2)cc1=O)c1ccccc1 | -24.2
OC(CNCCn1cccn1)c1ccc(Br)cc1 (configuration not stated) | 15.8
CCN1CCN(C)C(=O)C12CCN(C(=O)Cc1ccccn1)CC2 | 0.951
Cc1cccc(CN2C[C@H](OCc3ccccn3)[C@H]3COC[C@H]32)n1 | 5.07
N#Cc1cccc(N2CCCC3(CNCCO3)C2)n1 (configuration not stated) | -8.33
Cc1cccc(CNc2ccc(C(=O)N3CCC(CO)CC3)cc2)c1 | -5.19
O=C(CCC1CCCCC1)NCc1nnc2ccccn12 | -1.08
Cc1noc(C)c1CN1CCC2(COCc3cnc(N(C)C)nc32)C1 (configuration not stated) | -3.18
Cn1cc(CN2CCCC3(COCCN(c4cccnc4)C3)C2)cn1 (configuration not stated) | -6.27
CSc1ccc(-c2nc(CN3CCC(C(N)=O)CC3)c(C)o2)cc1 | -6.77
O=c1oc(-c2ccc(F)cc2)nn1CCS(=O)(=O)c1ccccc1 | -9.58

Structure (SMILES) | cytotoxicity at 70.5 h [%]
CN1CC2(CNCCN(C(=O)Nc3ccccc3)C2)CC1=O (configuration not stated) | -7.57
COCCN1CC2(CCOCC2)c2cc(NC(=O)C3CC=CC3)ccc21 | 28.4
CSCCCNC(=O)Nc1cccc(-c2nccn2C)c1 | 3.57
Cn1cnc(CN2Cc3nccn3CC2c2ccccc2)c1 (configuration not stated) | -7.94
COCCn1ccc(NC(=O)Nc2ccccn2)n1 | -10
Cc1cnc(C(=O)N2CCCCC2c2ccc(CN(C)C)cc2)cn1 (configuration not stated) | 8.8
O=C(C[C@@H]1COC[C@H]2CN(Cc3cccnc3)C[C@@H]12)N1CCOCC1 | 29.4
COc1cccc(C(=O)N2CCN(C(=O)CCCn3ccnc3)CC2)c1 | 26.1
O=C(c1ccn(-c2cccc(F)c2)n1)N1CCN(CCO)CC1 | -5.78
c1ccc2oc(N3CCC(c4nncn4C4CC4)CC3)nc2c1 | 29.8
O=C(N1CCCC1)N1CCn2c(nnc2C2CCCN2)C1 (configuration not stated) | -9.61
COCCN1CCC(CN(Cc2ccncc2)C2CCC2)CC1 | -6.79
COc1ccc(C)cc1C(=O)NC(CC(=O)O)c1cccs1 (configuration not stated) | -11.4
Cc1cccc(CO[C@@H]2C[C@H]3CN(C(=O)c4cnccn4)CCN3C2)n1 | -8.15
Cc1cc(C)n(-c2ccccc2NC(=O)NCCS(=O)(=O)CC(C)C)n1 | -8.6
CCS(=O)(=O)N1CCc2c(COCc3ccncc3)cncc2C1 | 18.9
CC(Nc1ncnc2c1CCNC2)c1ccc2c(c1)CCCC2 (configuration not stated) | -2.47
O=C(c1cc2cc(F)ccc2[nH]1)N1CCCCC1Cn1cccn1 (configuration not stated) | -0.801
O=C(Nc1cccnc1)[C@H]1C[C@@H]2CCN(Cc3nccs3)C[C@@H]2O1 | -15.1
CCN(c1ccc(C(=O)N2CCCC2)cc1)S(=O)(=O)CC | -10.8
Cc1cc2cccc(C(=O)N3CCOC(CCN(C)C)C3)c2o1 (configuration not stated) | -17.3
Cc1ccc(C(NC(=O)CCCN2CCCCC2)C(=O)O)cc1 (configuration not stated) | -12.7
NC(=O)CCN(CC(=O)NCc1cccs1)c1ccc(F)cc1 | -6.81

Structure (SMILES) | cytotoxicity at 70.5 h [%]
Cn1cc(C2COC3(CCN(C(=O)c4ccc(F)cc4)CC3)C2)cn1 (configuration not stated) | -2.41
Cc1cc(C(=O)N(C)S(C)(=O)=O)ccc1F | 11.2
CC1=CCN(S(=O)(=O)c2cccc(C(=O)N3CCOCC3)c2)CC1 | -15.8
Cc1c(NC(=O)CN2CCN(C3CCCC3)C(=O)C2)cnn1C | -2.64
CCCc1cncnc1N1CCC(NCCc2ccc(O)cc2)CC1 | -6.17
CCN(CC)[C@@H]1CN(Cc2nccn2C)[C@@H]2CCCO[C@H]12 | -3.21
CN(C)C(=O)CN1C[C@H]2CCN(C(=O)C3CCCO3)CC[C@H]2S1(=O)=O (some centres not stated) | -4.76
CCc1nnc2n1CCN(C(=O)CCc1ccc(C)c(Cl)c1)C2 | -1.97
Cc1ncc2c(n1)CN(Cc1ncc(C(C)(C)C)o1)CC2 | -13.9
CCC1=NC(SCC(=O)c2ccc(OC)cc2)c2cc(CC)sc2N1 (configuration not stated) | 12.2
CC(C)c1nccn1C1CCCN(C(=O)c2cc(C(N)=O)cs2)C1 (configuration not stated) | 2.06
CC(C)CN1CCC(NC(=O)c2ccc(Cl)cc2Cl)CC1 | -1.21
COc1ccc(CN(Cc2ccco2)Cc2[nH]cnc2C)c(OC)c1 | -8.31
Cc1cc(C)n(CC2CCCCN2CCCS(=O)(=O)N(C)C)n1 (configuration not stated) | 1.93
CCS(=O)(=O)N1CCC2(CCCN(c3ncc(F)cn3)C2)C1 (configuration not stated) | -6.13
CSc1ccc(NCC(=O)NC(=O)NCC(F)(F)F)cc1F | 19.5
Cc1cnn(CC2CN(CC(=O)Nc3cccnc3)CCO2)c1 (configuration not stated) | -4.29
O=S(=O)(C1CC1)N1CCC2(COCc3cnc(-c4cccnc4)nc32)C1 (configuration not stated) | -10.6
COc1c(C)cnc(CN2CCC(N(C)C(=O)C3CC3)CC2)c1C | -10.5
CCCc1nc(N2CCC(C)CC2)c2c(n1)c(C)nn2CC | -10.6
c1ccc(CCN2CCCC(c3noc(C4CC4)n3)C2)cc1 (configuration not stated) | -5.63
COCC1c2c(cnn2C)CCN1Cc1ccsc1 (configuration not stated) | -22.9
O=C(c1ccco1)N1CCO[C@@H]2CNC[C@@H]21 | -6.25

Structure (SMILES) | cytotoxicity at 70.5 h [%]
COC(=O)N1CCCCC1C(=O)N(C)Cc1cc(-c2cccnc2)no1 (configuration not stated) | -8.4
O=c1n(CCSCc2ccccc2Cl)nc2ccccn12 | -6.77
CC(C)(C)S(=O)(=O)c1ccc(N2CCC(n3ccnc3)CC2)cn1 | -12.2
Cc1csc(CNC(=O)N(C)Cc2ccncc2)n1 | -0.603
COc1cccc(N2CCN(Cc3nccn3C(C)C)CC2=O)c1 | -2.87
CN1CCN([C@@H]2CCN(C3CCOC3)[C@H]2Cc2cnn(C)c2)CC1 (some centres not stated) | -12.4
COc1ccc(C(=O)N2CCC(Oc3ccccc3)(C(=O)O)CC2)o1 | 2.93
COc1cccc(OCC2CCCN(C(=O)c3cc(C)n[nH]3)C2)c1 (configuration not stated) | 4.2
COc1ccc(NC(=O)N2CCC3(CC2)NC(=O)CC3C(=O)O)c(C)c1 (configuration not stated) | -1.09
CN(c1c(F)cccc1F)S(=O)(=O)c1cc2c(c(C(=O)O)c1)OCCO2 | 9.94
O=c1n(CCn2cccc2)nc(C2CCNCC2)n1Cc1ccccc1 | -3.92
CCN(Cc1ccco1)C(=O)NCc1nnc2n1CCCCC2 | 5.47
Cc1nc(-c2noc3ccc(C(=O)NCCN(C)C)cc23)co1 | -7.57
CCCNC(=O)CCC(=O)N1CCC(c2noc3cc(F)ccc23)CC1 | -8.21
c1cnc(N2CCC3(CN(CC4CCOC4)C3)C2)nc1 (configuration not stated) | 24.1
COc1cccc(C2CC(=O)Nc3nc(N4CCOCC4)sc32)c1OC (configuration not stated) | -8.01
CC(C)CC(NC(=O)c1cnn(C)c1)C(=O)Nc1cc[nH]n1 (configuration not stated) | 0.0249
Cc1cc(Nc2ccccn2)nc(C2CCCN(CCO)C2)n1 (configuration not stated) | -8.92
N#Cc1cc(C(F)(F)F)ccc1NCC1CCS(=O)(=O)CC1 | 16.6
CC(O)c1cccc(Nc2nc(NCCO)c3ccccc3n2)c1 (configuration not stated) | -5.65
